Laboratory results taken from patent US4175081A, “5-Substituted thiadiazole ureas” (priority 1977, dated 1979).

Experiments:
Turnip (TP) [1] = assay: Post-emergence herbicide test; type: in vivo, Brassica sp.; settings: Brassica rapa, post-emergence, 336 h, two weeks after treatment; for pest or weed control at 8966.8 g/ha: 8 lb/acre
Procedure, shortened: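 A greenhouse post-emergence herbicide test on turnip. Seeds were sown on the surface of potting soil in 3' plastic pots, lightly covered with screened soil and watered from below. Planting was timed so seedlings had 1 or 2 true leaves above the cotyledons at spraying, done in a hood with a fixed nozzle. Control or injury was scored by eye after two weeks.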

Johnson grass (JG) [2] = assay: Post-emergence herbicide test; type: in vivo, Sorgum helepense; settings: Sorghum halepense, 336 h, two weeks after treatment; for pest or weed control at 8966.8 g/ha: 8 lb/acre
Procedure, shortened: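 Visual injury or control scores taken 2 weeks after a post-emergence spray of pot-grown plants. Application was 8 lbs/acre (or 4 lbs/acre) in 38 gal/acre. Plants were held in the greenhouse with sub-irrigation only.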

Corn (CN) [3] = assay: Post-emergence herbicide test; type: in vivo; settings: Zea mays, 336 h, two weeks after treatment; for pest or weed control at 8966.8 g/ha: 8 lb/acre
Procedure, shortened: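 Greenhouse seedlings grown in potting soil and sprayed post-emergence at 8 lbs compound/acre (formulations also made for 4 lbs/acre) in 38 gallons/acre spray volume. Watering by sub-irrigation only. Injury or control rated visually two weeks after treatment.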

Turnip (TP) [4] = assay: Pre-emergence herbicide test; type: in vivo, Brassica sp.; settings: Brassica rapa, pre-emergence, 336 h; 8 lb/acre; two weeks after treatment
Procedure, shortened: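 In this pre-emergence greenhouse test, turnip was seeded on the surface of potting soil in 3' plastic pots, lightly covered with screened soil, and watered from below. One day later the pots were sprayed in a belt-fed spray hood. Watering continued only by sub-irrigation, and percent control was visually scored two weeks after treatment.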

Bean (BN) [5] = assay: Post-emergence herbicide test; type: in vivo, Phaseolus vulgaris var. Black Valentine; settings: Phaseolus vulgaris, post-emergence, 336 h, two weeks after treatment; for pest or weed control at 8966.8 g/ha: 8 lb/acre
Procedure, shortened: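 Bean seedlings (Phaseolus vulgaris var. Black Valentine) were grown in potting soil in 3' pots until the primary leaves expanded. They were then sprayed under a hood with a removable belt and fixed nozzle, using 50 ml formulations. Afterward they were returned to the greenhouse and watered only by sub-irrigation. Percent control was judged visually two weeks after treatment.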

Crabgrass (CG) [6] = assay: Post-emergence herbicide test; type: in vivo, Digitaria sanquinalis; settings: Digitaria sanguinalis, post-emergence, 336 h, two weeks after treatment; for pest or weed control at 8966.8 g/ha: 8 lb/acre
Procedure, shortened: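 Crabgrass (Digitaria sanquinalis) was surface seeded individually in 3' plastic pots of potting soil, covered with screened soil, and watered by sub-irrigation in greenhouse trays. Planting was staggered so seedlings reached the target stage together. Post-emergence sprays were applied in a hood with a removable belt and fixed nozzle, and control was visually rated two weeks after treatment.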

Corn (CN) [7] = assay: Pre-emergence herbicide test; type: in vivo; settings: Zea mays, 336 h, 8 lb/acre, two weeks after treatment
Procedure, shortened: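 Visual injury/control ratings were made 2 weeks post-spray on corn pots seeded (4 seeds, seed-diameter depth) the day before treatment. Application was a belt-hood spray of 38 gal/acre delivering 8 lbs active per acre, with a 4 lbs/acre rate also formulated. Watering was by sub-irrigation throughout.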

Amaranth pigweed (PW) [8] = assay: Post-emergence herbicide test; type: in vivo, Amaranthus retroflexus; settings: 336 h, two weeks after treatment; for pest or weed control at 8966.8 g/ha: 8 lb/acre
Procedure, shortened: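 Visual injury or control ratings were made two weeks after spraying, with greenhouse watering by sub-irrigation only. Treatment was post-emergence, when pigweed seedlings had 1 or 2 true leaves, at 8 lbs active compound per acre (4 lbs/acre formulations also made) in a 38 gallons-per-acre spray volume.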

[9] = system: Yellow foxtail grass (YF); assay: Pre-emergence herbicide test; type: in vivo, Setaria glauca; settings: Setaria, 336 h, 8 lb/acre, two weeks after treatment
Procedure, shortened: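 Visual rating of injury/control made two weeks after a pre-emergence spray of 8 or 4 lbs active per acre (38 gal/acre) onto pots seeded the previous day. Greenhouse watering by sub-irrigation only.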

[10] = system: Yellow foxtail grass (YF); assay: Post-emergence herbicide test; type: in vivo, Setaria glauca; settings: Setaria, 336 h, two weeks after treatment; for pest or weed control at 8966.8 g/ha: 8 lb/acre
Procedure, shortened: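 Visual rating of injury/control made 2 weeks post-spray. Seedlings at a uniform growth stage in soil-filled pots received a hood spray of 8 lbs/acre active compound, 38 gallons/acre volume, with a 4 lbs/acre rate also formulated. Watering was by sub-irrigation only.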

Bean (BN) [11] = assay: Pre-emergence herbicide test; type: in vivo, Phaseolus vulgaris var. Black Valentine; settings: Phaseolus vulgaris, 336 h, 8 lb/acre, two weeks after treatment
Procedure, shortened: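 Visual injury/control ratings were taken two weeks post-spray on sub-irrigated Phaseolus vulgaris var. Black Valentine. Pots were sown a day before treatment. Pre-emergence spray delivered 8 lbs actual compound per acre (or 4 lbs/acre) at 38 gallons per acre.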

[12] = system: variety of crops and weed species; assay: Pre- and post-emergence herbicide tests, overall assessment of Tables III-VI; type: in vivo; settings: data of Tables III-VI
Procedure: All crop and weed species were planted individually in 3' plastic pots containing potting soil. Four seeds each of corn, cotton, and snapbeans were seeded to a depth equal to the diameter of the seed. All other species were surface seeded and sprinkled with screened soil in an amount sufficient to cover the seed. Immediately after planting, all pots were watered by sub-irrigation in greenhouse trays. Pots for the pre-emergence phase were seeded one day before treatment.
Compounds were tested at rates of application equivalent to 8 lbs. of actual compound per acre in a spray volume of 38 gallons per acre. Spray hood constants required to deliver the above volume are as follows:
Two weeks after treatment, pre- and post-emergence injury or control was visually rated, and the results were as shown in the following tables. Pre-emergence data are provided in TABLE III and post-emergence data are provided in TABLE IV, for compounds having the formula illustrated in TABLE I. Correspondingly, pre-emergence and post-emergence data, respectively, are set forth in TABLES V AND VI, for compounds having the formula illustrated in TABLE II.

Cotton (CT) [13] = assay: Pre-emergence herbicide test; type: in vivo, Gossypium hirsutum var. DPL smooth leaf; settings: Gossypium hirsutum, 336 h, 8 lb/acre, two weeks after treatment
Procedure, shortened: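 Visual injury/control ratings were taken at two weeks post-spray. Pots seeded a day earlier received compound pre-emergence at 8 lbs/acre, or 4 lbs/acre, in a 38 gallon/acre spray volume, and were then held in the greenhouse, watered only from below.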

Johnson grass (JG) [14] = assay: Pre-emergence herbicide test; type: in vivo, Sorgum helepense; settings: Sorghum halepense, 336 h, 8 lb/acre, two weeks after treatment
Procedure, shortened: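 Visual injury or control rating two weeks post-treatment, after pre-emergence spray of 8 or 4 lbs active per acre (38 gal/acre) onto pots sown the previous day. Greenhouse watering by sub-irrigation only.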

Barnyard grass (BG) [15] = assay: Post-emergence herbicide test; type: in vivo; settings: Echinochloa crus-galli, 336 h, two weeks after treatment; for pest or weed control at 8966.8 g/ha: 8 lb/acre
Procedure, shortened: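 Greenhouse pot-grown barnyard grass seedlings sprayed post-emergence at 8 lbs active compound per acre (some at 4 lbs/acre) in 38 gallons per acre, then sub-irrigated. Injury or control rated visually two weeks after treatment.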

Cotton (CT) [16] = assay: Post-emergence herbicide test; type: in vivo, Gossypium hirsutum var. DPL smooth leaf; settings: Gossypium hirsutum, post-emergence, 336 h, two weeks after treatment; for pest or weed control at 8966.8 g/ha: 8 lb/acre
Procedure, shortened: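 This greenhouse post-emergence test measured how well spray treatments controlled cotton. Seedlings of Gossypium hirsutum var. DPL smooth leaf, with expanded cotyledons and a first true leaf 1' in length, were sprayed with 50 ml formulations in a belt-fed spray hood. They were then returned to the greenhouse and watered only by sub-irrigation. Injury was scored visually as % control after two weeks.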

Amaranth pigweed (PW) [17] = assay: Pre-emergence herbicide test; type: in vivo, Amaranthus retroflexus; settings: 336 h, 8 lb/acre, two weeks after treatment
Procedure, shortened: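 Visual injury or control ratings were made at two weeks on pre-emergence pots, sub-irrigated in the greenhouse. Seeds were sown a day before a hood spray delivering 8 lbs/acre (or 4 lbs/acre) of compound in 38 gallons per acre.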

Crabgrass (CG) [18] = assay: Pre-emergence herbicide test; type: in vivo, Digitaria sanquinalis; settings: Digitaria sanguinalis, pre-emergence, 336 h; 8 lb/acre; two weeks after treatment
Procedure, shortened: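 Crabgrass (Digitaria sanquinalis) was surface seeded in 3' plastic pots of potting soil, covered with screened soil, and watered by sub-irrigation in greenhouse trays. Pots were seeded one day before spraying in a hood with a moving belt and fixed nozzle. Plants stayed in the greenhouse on sub-irrigation, and pre-emergence control was rated visually two weeks after treatment.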

Barnyard grass (BG) [19] = assay: Pre-emergence herbicide test; type: in vivo; settings: Echinochloa crus-galli, 336 h, 8 lb/acre, two weeks after treatment
Procedure, shortened: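 Greenhouse pre-emergence spray test: pots seeded one day before treatment received compound at rates of 8 or 4 lb/acre (38 gal/acre). Visual injury/control scores for Echinochloa crus-galli taken at two weeks, with watering by sub-irrigation only.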

| Compound | pest or weed control at 8966.8 g/ha (Turnip (TP) [1]) | pest or weed control at 8966.8 g/ha (Johnson grass (JG) [2]) | pest or weed control at 8966.8 g/ha (Corn (CN) [3]) | pest or weed control at 8966.8 g/ha (Turnip (TP) [4]) | pest or weed control at 8966.8 g/ha (Bean (BN) [5]) | pest or weed control at 8966.8 g/ha (Crabgrass (CG) [6]) | pest or weed control at 8966.8 g/ha (Corn (CN) [7]) | pest or weed control at 8966.8 g/ha (Amaranth pigweed (PW) [8]) | pest or weed control at 8966.8 g/ha [9] | pest or weed control at 8966.8 g/ha [10] | pest or weed control at 8966.8 g/ha (Bean (BN) [11]) | herbicidal effectiveness / selectivity, in words [12] | pest or weed control at 8966.8 g/ha (Cotton (CT) [13]) | pest or weed control at 8966.8 g/ha (Johnson grass (JG) [14]) | pest or weed control at 8966.8 g/ha (Barnyard grass (BG) [15]) | pest or weed control at 8966.8 g/ha (Cotton (CT) [16]) | pest or weed control at 8966.8 g/ha (Amaranth pigweed (PW) [17]) | pest or weed control at 8966.8 g/ha (Crabgrass (CG) [18]) | pest or weed control at 8966.8 g/ha (Barnyard grass (BG) [19]) | further results |
| --- | --- | --- | --- | --- | --- | --- | --- | --- | --- | --- | --- | --- | --- | --- | --- | --- | --- | --- | --- | --- |
| CN(C)C(=O)Nc1nnc(C(F)(F)F)s1 [Example 2, 1,1-Dimethyl-3-[5-Trifluoromethyl-2-(1,3,4-Thiadiazolyl)] Urea] | 80% | 40% | 100% | 100% | 60% | 60% | 50% | 90% | 90% | 60% | 80% | extremely effective when applied to a variety of crops and weed species | 70% | 90% | 60% | 90% | 90% | 90% | 90% | pest or weed control at 2241.7 g/ha (Turnip (TP) [1]; 2 lb/acre): 100%; pest or weed control at 4483.4 g/ha (Turnip (TP) [1]; 4 lb/acre): 90%; pest or weed control (Johnson grass (JG) [2]; 2 lb/acre): 90%; pest or weed control at 4483.4 g/ha (Johnson grass (JG) [2]; 4 lb/acre): 30%; pest or weed control (Corn (CN) [3]; 2 lb/acre): 100%; pest or weed control at 4483.4 g/ha (Corn (CN) [3]; 4 lb/acre): 100%; pest or weed control at 2241.7 g/ha (Bean (BN) [5]; 2 lb/acre): 80%; pest or weed control at 4483.4 g/ha (Bean (BN) [5]; 4 lb/acre): 70%; pest or weed control (Crabgrass (CG) [6]; 2 lb/acre): 100%; pest or weed control at 4483.4 g/ha (Crabgrass (CG) [6]; 4 lb/acre): 80%; pest or weed control at 2241.7 g/ha (Amaranth pigweed (PW) [8]; 2 lb/acre): 100%; pest or weed control at 4483.4 g/ha (Amaranth pigweed (PW) [8]; 4 lb/acre): 100%; pest or weed control ([10]; 2 lb/acre): 90%; pest or weed control at 4483.4 g/ha ([10]; 4 lb/acre): 90%; pest or weed control at 2241.7 g/ha (Barnyard grass (BG) [15]; 2 lb/acre): 90%; pest or weed control at 4483.4 g/ha (Barnyard grass (BG) [15]; 4 lb/acre): 90%; pest or weed control at 2241.7 g/ha (Cotton (CT) [16]; 2 lb/acre): 100%; pest or weed control at 4483.4 g/ha (Cotton (CT) [16]; 4 lb/acre): 90% |
| CSc1nnc(N(C)C(=O)N(C)C)s1 [Example 5, 1,1,3-trimethyl-3-[5-methylthio-2-(1,3,4-thiadiazolyl)] urea] | 100% | 90% | 100% | 100% | 100% | 100% | 70% | 100% | 90% | 100% | 90% | extremely effective when applied to a variety of crops and weed species | 90% | 50% | 100% | 100% | 100% | 100% | 80% |  |
| CCNC(=O)Nc1nnc(C(F)(F)F)s1 [Example 9] | 60% | 80% | 30% | 10% | 70% | 60% | 50% | 100% | 20% | 30% | 100% | more selective when applied to a certain crop or weed species | 30% | 10% | 40% | 50% |  | 10% | 20% |  |
| O=C(Nc1ccc(Cl)cc1)Nc1nnc(C(F)(F)F)s1 [Example 15] | 50% | 20% | 20% | 10% | 40% | 30% | 10% | 100% | 10% | 20% | 30% | more selective when applied to a certain crop or weed species | 80% | 10% | 20% | 60% |  | 10% | 10% |  |
